Assay results taken from US9273058B2 (BRISTOL-MYERS SQUIBB COMPANY, priority 2013, dated 2016).
pIC50: −log10 of the molar value. Like-named read-outs stand apart in the source and are kept apart here.

What was measured:
CK1ε = CK1ε (Homo sapiens, UniProt P49674); test: CK1ε kinase assay (Caliper LabChip electrophoretic separation of fluoresceinated peptide substrate and product); type: biochemical; conditions: 200 pM CK1ε, 50 μM ATP, 1.5 μM peptide, 22 hours at room temperature
Method in brief: (§1)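 Kinase reactions ran 22 h at room temperature, were stopped with EDTA, and phosphorylated product was separated electrophoretically from unphosphorylated fluoresceinated peptide. Compounds were tested at eleven concentrations from 10 mM DMSO stocks. IC50 by non-linear regression.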

CK1δ = CK1δ (Homo sapiens, UniProt P48730); test: CK1δ kinase assay (Caliper LabChip electrophoretic separation of fluoresceinated peptide substrate and product); type: biochemical; conditions: 200 pM CK1δ, 50 μM ATP, 1.5 μM peptide, 22 hours at room temperature
Sequence of CK1δ (P48730 whole entry): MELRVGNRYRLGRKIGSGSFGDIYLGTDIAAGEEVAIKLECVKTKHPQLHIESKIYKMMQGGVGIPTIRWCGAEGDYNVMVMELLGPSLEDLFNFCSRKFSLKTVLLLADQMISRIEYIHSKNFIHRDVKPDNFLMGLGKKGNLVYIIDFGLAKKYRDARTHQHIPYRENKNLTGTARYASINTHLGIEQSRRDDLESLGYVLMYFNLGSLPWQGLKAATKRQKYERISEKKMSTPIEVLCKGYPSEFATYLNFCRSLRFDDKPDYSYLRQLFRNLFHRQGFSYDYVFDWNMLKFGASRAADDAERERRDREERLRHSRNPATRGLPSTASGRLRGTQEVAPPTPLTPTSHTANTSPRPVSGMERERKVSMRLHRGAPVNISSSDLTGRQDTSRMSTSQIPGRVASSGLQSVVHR
Method in brief: as §1

Sequence of CK1ε (P49674 whole entry): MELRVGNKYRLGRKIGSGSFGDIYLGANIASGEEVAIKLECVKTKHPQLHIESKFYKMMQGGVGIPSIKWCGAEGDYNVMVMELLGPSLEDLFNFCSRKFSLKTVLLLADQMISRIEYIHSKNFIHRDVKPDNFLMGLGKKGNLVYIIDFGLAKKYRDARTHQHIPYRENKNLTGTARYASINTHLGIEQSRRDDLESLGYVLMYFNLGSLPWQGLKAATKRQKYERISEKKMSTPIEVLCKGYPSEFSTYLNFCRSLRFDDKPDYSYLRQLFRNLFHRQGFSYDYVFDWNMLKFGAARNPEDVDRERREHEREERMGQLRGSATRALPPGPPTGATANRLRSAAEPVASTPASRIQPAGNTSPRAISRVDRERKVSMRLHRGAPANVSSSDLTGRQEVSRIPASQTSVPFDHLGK

| pIC50 (CK1ε; read-out: CK1ε IC50 range) | pIC50 (CK1δ; read-out: CK1δ IC50 range) | pIC50 (CK1ε; read-out: CK1ε) | pIC50 (CK1δ; read-out: CK1δ) | SMILES |
| --- | --- | --- | --- | --- |
| 8.00 to 11.00 | 8.00 to 11.00 | – | – | NC(=O)c1c(-c2cccc(Cl)c2)nn2c1CN(C(=O)NC13CCC(CF)(CC1)CC3)CC2 [Compound A78, 2-(3-Chlorophenyl)-N^5-(4-(fluoromethyl)bicyclo[2.2.2]octan-1-yl)-6,7-dihydropyrazolo[1,5-a]pyrazine-3,5(4H)-dicarboxamide] |
| 8.00 to 11.00 | 8.00 to 11.00 | – | – | COC12CCC(NC(=O)N3CCn4nc(-c5cccc(Cl)c5)c(C(N)=O)c4C3)(CC1)CC2 [Compound A80, 2-(3-Chlorophenyl)-N^5-(4-methoxybicyclo[2.2.2]octan-1-yl)-6,7-dihydropyrazolo[1,5-a]pyrazine-3,5(4H)-dicarboxamide] |
| 8.00 to 11.00 | 8.00 to 11.00 | – | – | NC(=O)c1c(-c2cccc(Cl)c2)nn2c1CN(C(=O)N[C@@H]1CC[C@@H]1C(F)F)CC2 [Compound 239, 2-(3-Chlorophenyl)-N^5-((1R,2S)-2-(difluoromethyl)cyclobutyl)-6,7-dihydropyrazolo[1,5-a] pyrazine-3,5(4H)-dicarboxamide] |
| 8.00 to 11.00 | 8.00 to 11.00 | – | – | NC(=O)c1c(-c2ccc(F)c(Cl)c2)nn2c1CN(C(=O)NC1CCCC1)CC2C(F)F (stereo not shown) [Compound A11, 2-(3-Chloro-4-fluorophenyl)-N^5-cyclopentyl-7-(difluoromethyl)-6,7-dihydropyrazolo[1,5-a]pyrazine-3,5(4H)-dicarboxamide] |
| 8.00 to 11.00 | 8.00 to 11.00 | – | – | C[C@]1(NC(=O)N2CCn3nc(-c4ccc(F)c(Cl)c4)c(C(N)=O)c3C2)C[C@H](F)C1 [Compound 275, 2-(3-Chloro-4-fluorophenyl)-N^5-((1r,3r)-3-fluoro-1-methylcyclobutyl)-6,7-dihydropyrazolo[1,5-a]pyrazine-3,5(4H)-dicarboxamide] |
| 8.00 to 11.00 | 8.00 to 11.00 | 9.40 | 8.82 | CC1CC(NC(=O)N2CCn3nc(-c4ccc(Cl)c(Cl)c4)c(C(N)=O)c3C2)C1 (single isomer, unassigned) [Compound 248, 2-(3,4-Dichlorophenyl)-N^5-(3-methylcyclobutyl)-6,7-dihydropyrazolo[1,5-a]pyrazine-3,5(4H)-dicarboxamide] |
| 7.00 to 8.00 | 5.70 to 7.00 | – | – | CC(C)(C)C1CN(C(=O)NC2CC(F)(F)C2)Cc2c(C(N)=O)c(-c3ccc(F)c(Cl)c3)nn21 (single isomer, unassigned) [Compound A121, 7-(tert-Butyl)-2-(3-chloro-4-fluorophenyl)-N5-(3,3-difluorocyclobutyl)-6,7-dihydropyrazolo[1,5-a]pyrazine-3,5(4H)-dicarboxamide] |
| 5.70 to 7.00 | 5.70 to 7.00 | – | – | CC(C)(C)NC(=O)N1CCn2nc(-c3cccc4cnccc34)c(C(N)=O)c2C1 [Compound 134, N^5-(tert-Butyl)-2-(isoquinolin-5-yl)-6,7-dihydropyrazolo[1,5-a] pyrazine-3,5(4H)-dicarboxamide] |
| 8.00 to 11.00 | 8.00 to 11.00 | – | – | CC(C)(C)NC(=O)N1Cc2c(C(N)=O)c(-c3cccc(Cl)c3)nn2C(CF)C1 (stereo not shown) [Compound A5, N^5-(tert-butyl)-2-(3-chlorophenyl)-7-(fluoromethyl)-6,7-dihydropyrazolo[1,5-a] pyrazine-3,5(4H)-dicarboxamide] |
| 8.00 to 11.00 | 8.00 to 11.00 | – | – | CC1(NC(=O)N2CCn3nc(-c4cccc(Cl)c4)c(C(N)=O)c3C2)CC2(C1)CC2(F)F (single isomer, unassigned) [Compound 330, 2-(3-Chlorophenyl)-N^5-(1,1-difluoro-5-methylspiro[2.3]hexan-5-yl)-6,7-dihydropyrazolo[1,5-a]pyrazine-3,5(4H)-dicarboxamide] |
| 8.00 to 11.00 | 8.00 to 11.00 | – | – | N#Cc1ccc(NC(=O)N2CCn3nc(-c4cccc(Cl)c4)c(C(N)=O)c3C2)cc1C(F)(F)F [Compound 159, 2-(3-Chlorophenyl)-N^5-(4-cyano-3-(trifluoromethyl)phenyl)-6,7-dihydropyrazolo [1,5-a]pyrazine-3,5(4H)-dicarboxamide] |
| 8.00 to 11.00 | 8.00 to 11.00 | – | – | CO[C@H]1C[C@@H](NC(=O)N2CCn3nc(-c4cccc(Cl)c4)c(C(N)=O)c3C2)C1 [Compound 177, 2-(3-Chlorophenyl)-N^5-((1s,3s)-3-methoxycyclobutyl)-6,7-dihydropyrazolo[1,5-a] pyrazine-3,5(4H)-dicarboxamide] |
| 8.00 to 11.00 | 8.00 to 11.00 | – | – | CC(C)(NC(=O)N1CCn2nc(-c3ccc(F)c(Cl)c3)c(C(N)=O)c2C1)C(F)F [Compound 185, 2-(3-Chloro-4-fluorophenyl)-N^5-(1,1-difluoro-2-methylpropan-2-yl)-6,7-dihydropyrazolo[1,5-a]pyrazine-3,5(4H)-dicarboxamide] |
| 8.00 to 11.00 | 8.00 to 11.00 | – | – | NC(=O)c1c(-c2cc(F)cc(Cl)c2)nn2c1CN(C(=O)NC1CC(F)(F)C1)CC2 [Compound 295, 2-(3-Chloro-5-fluorophenyl)-N^5-(3,3-difluorocyclobutyl)-6,7-dihydropyrazolo[1,5-a] pyrazine-3,5(4H)-dicarboxamide] |
| 5.70 to 7.00 | 7.00 to 8.00 | – | – | NC(=O)c1c(-c2cccc(F)c2)nn2c1CN(C(=O)Nc1ccccc1C(F)(F)F)CC2 [Compound 48, 2-(3-Fluorophenyl)-N^5-(2-(trifluoromethyl)phenyl)-6,7-dihydropyrazolo[1,5-a]pyrazine-3,5(4H)-dicarboxamide] |
| 8.00 to 11.00 | 8.00 to 11.00 | – | – | CC(C)(C)NC(=O)N1Cc2c(C(N)=O)c(-c3ccc(F)c(Cl)c3)nn2C(CCF)C1 (single isomer, unassigned) [Compound A102, N^5-(tert-Butyl)-2-(3-chloro-4-fluorophenyl)-7-(2-fluoroethyl)-6,7-dihydropyrazolo[1,5-a]pyrazine-3,5(4H)-dicarboxamide] |
| 8.00 to 11.00 | 8.00 to 11.00 | – | – | CS(=O)(=O)[C@H]1C[C@@H](NC(=O)N2CCn3nc(-c4cccc(Cl)c4)c(C(N)=O)c3C2)C1 [Compound 273, 2-(3-Chlorophenyl)-N^5-((1s,3s)-3-(methylsulfonyl)cyclobutyl)-6,7-dihydropyrazolo[1,5-a] pyrazine-3,5(4H)-dicarboxamide] |
| 8.00 to 11.00 | 8.00 to 11.00 | – | – | NC(=O)c1c(-c2ccc(Cl)c(Cl)c2)nn2c1CN(C(=O)NC1CC3(C1)CC(F)(F)C3)CC2 [Compound 208, 2-(3,4-Dichlorophenyl)-N^5-(6,6-difluorospiro [3.3]heptan-2-yl)-6,7-dihydropyrazolo[1,5-a] pyrazine-3,5(4H)-dicarboxamide] |
| 7.00 to 8.00 | 7.00 to 8.00 | – | – | COc1cc(NC(=O)N2CCn3nc(-c4cccc(F)c4)c(C(N)=O)c3C2)ncn1 [Compound 75, 2-(3-Fluorophenyl)-N^5-(6-methoxypyrimidin-4-yl)-6,7-dihydropyrazolo[1,5-a]pyrazine-3,5(4H)-dicarboxamide] |
| 5.70 to 7.00 | 7.00 to 8.00 | – | – | COc1ccc(CCNC(=O)N2CCn3nc(-c4cccc(F)c4)c(C(N)=O)c3C2)cc1 [Compound 47, 2-(3-Fluorophenyl)-N^5-(4-methoxyphenethyl)-6,7-dihydropyrazolo[1,5-a]pyrazine-3,5(4H)-dicarboxamide] |
| 5.70 to 7.00 | 7.00 to 8.00 | – | – | CC(C)(C)NC(=O)N1CCn2nc(-c3cccc(C(N)=O)c3)c(C(N)=O)c2C1 [Compound 123, N^5-(tert-Butyl)-2-(3-carbamoylphenyl)-6,7-dihydropyrazolo[1,5-a] pyrazine-3,5(4H)-dicarboxamide] |
| 8.00 to 11.00 | 8.00 to 11.00 | – | – | CC(C)(C)NC(=O)N1Cc2c(C(N)=O)c(-c3ccc(F)c(Cl)c3)nn2C(CCF)C1 (single isomer, unassigned) [Compound A103, N^5-(tert-Butyl)-2-(3-chloro-4-fluorophenyl)-7-(2-fluoroethyl)-6,7-dihydropyrazolo[1,5-a]pyrazine-3,5(4H)-dicarboxamide] |
| 8.00 to 11.00 | 8.00 to 11.00 | – | – | N#Cc1ccc(C23CCC(NC(=O)N4CCn5nc(-c6ccc(Cl)c(Cl)c6)c(C(N)=O)c5C4)(CC2)CC3)cc1 [Compound A90, N^5-(4-(4-Cyanophenyl)bicyclo[2.2.2]octan-1-yl)-2-(3,4-dichlorophenyl)-6,7-dihydropyrazolo[1,5-a]pyrazine-3,5(4H)-dicarboxamide] |
| 5.70 to 7.00 | 7.00 to 8.00 | – | – | CC(C)(C)NC(=O)N1CCn2nc(-c3ccc(F)c(C(F)(F)F)c3)c(C(N)=O)c2C1 [Compound 139, N^5-(tert-Butyl)-2-(4-fluoro-3-(trifluoromethyl)phenyl)-6,7-dihydropyrazolo[1,5-a] pyrazine-3,5(4H)-dicarboxamide] |
| 8.00 to 11.00 | 8.00 to 11.00 | – | – | CC1(C)C2CCC1(NC(=O)N1CCn3nc(-c4ccc(F)c(Cl)c4)c(C(N)=O)c3C1)CC2F (stereo not shown) [Compound A67, 2-(3-Chloro-4-fluorophenyl)-N^5-(3-fluoro-7,7-dimethylbicyclo[2.2.1]heptan-1-yl)-6,7-dihydropyrazolo[1,5-a]pyrazine-3,5(4H)-dicarboxamide] |
| 8.00 to 11.00 | 8.00 to 11.00 | – | – | N#CCC1(NC(=O)N2CCn3nc(-c4cccc(Cl)c4)c(C(N)=O)c3C2)CCC1 [Compound 221, 2-(3-Chlorophenyl)-N^5-(1-(cyanomethyl)cyclobutyl)-6,7-dihydropyrazolo[1,5-a] pyrazine-3,5(4H)-dicarboxamide] |
| 8.00 to 11.00 | 8.00 to 11.00 | – | – | CC1(C)CC(NC(=O)N2CCn3nc(-c4cccc(Cl)c4)c(C(N)=O)c3C2)C1 [Compound 286] |
| 8.00 to 11.00 | 8.00 to 11.00 | – | – | NC(=O)c1c(-c2cccc(Cl)c2)nn2c1CN(C(=O)N[C@H]1C[C@@H](c3ccc(F)cc3)C1)CC2 [Compound 277, 2-(3-Chlorophenyl)-N^5-((1s,3s)-3-(4-fluorophenyl)cyclobutyl)-6,7-dihydropyrazolo[1,5-a] pyrazine-3,5(4H)-dicarboxamide] |
